The record followed here is patent US12616649B2, “Composition containing plant extracts” (LG HOUSEHOLD & HEALTH CARE LTD., priority 2020, dated 2026).

The test system of one experiment is Aspergillus niger. The experiment in a line: Antibacterial effect, MIC, fungi (serial dilution). The format is cell-based. The procedure:
MICs were measured for fermented cultures of Staphylococcus aureus and Aspergillus niger.
The serial dilution method was used for both bacteria, and the MIC of fermentation culture was confirmed by visually comparing the turbidity between wells after the incubation was completed.
The minimum inhibitory concentration of each extract was expressed as % (w/v), and MIC (%) in each table means % (w/v) unless otherwise stated.

Another experiment deals with P. aeruginosa. Briefly: MIC of the hexanediol control, bacteria as named in the tables. The format is cell-based. The following applies: control group.
Experiment [1] relates to B-16 mouse melanoma cells. Briefly: Effect of reducing total amount of melanin (whitening). The format is cell-based. The conditions noted are these: control group. The method, then:
After a sample was added to the culture medium of B-16 mouse melanoma cells, a whitening effect was confirmed by measuring the total amount of melanin at the cellular level (Lotan R., Lotan D. Cancer Res. 40:3345-3350, 1980). Before the experiment, toxicity evaluation was performed on mouse melanoma cells to select a concentration without toxicity, and then whitening evaluation was performed at the concentration.
As a control, arbutin was added to the culture medium at a concentration of 200 ppm. B-16 melanoma cells treated with the sample or arbutin were cultured for 3 days.
Thereafter, the cells were removed from a culture vessel and centrifuged, 1 ml of sodium hydroxide solution (1N concentration) was added to the centrifuged cell pellet, heating was performed at 80° C. for 10 minutes to dissolve melanin, and using a spectrophotometer, absorbance at 400 nm was measured to measure the amount of melanin produced.
The amount of melanin was determined according to absorbance per unit cell number (1×10^6 cells). In addition, based on a non-addition control group, the relative total amount of melanin in the experimental group treated with each sample was calculated as inhibition rate (%), and the results are summarized in the table below.

A further experiment concerns RAW264.7 cells. The experiment in a line: NO generation inhibitory effect (GRIESS method, LPS stimulus). Format: cell-based, mouse. The method, then:
To check the anti-inflammatory effect and skin trouble alleviation effect of each sample, an experiment was conducted to evaluate inhibition of nitric oxide (NO) formation by the GRIESS method using the RAW264.7 cell line (ATCC number: CRL-2278).
Specifically, RAW264.7 cells, which are macrophages of mice, were subcultured several times, and the cells were seeded at a cell density of 3×10^5 cells per well in a 24-well plate, followed by cell culture for 24 hours. At this time, as a positive control, the cells were treated with L-NG-monomethylarginine (L-NMMA), a NO-production inhibitor, to a final concentration of 5 ppm and cultured for 30 minutes. Then, the cells were treated with lipopolysaccharide (LPS) as a stimulus at a concentration of 1 μg/ml and cultured for 24 hours. 100 μl of the supernatant was transferred to a 96-well plate, 100 μl of a GRIESS solution was added thereto, and then reaction was performed at room temperature for 10 minutes. Then, absorbance at 540 nm was measured, and the NO inhibitory effect of each sample was determined based on the absorbance, and the results are shown in the table below.

Experiment [2] is described as follows: Antioxidant effect, free radical scavenging (DPPH). Format: physicochemical. The following applies: control group. The method, then:
To confirm antioxidant activity, free radical scavenging activity was measured using DPPH. DPPH was purchased from Sigma Co., Ltd. (USA). First, a standard DPPH ethanol solution with a concentration of […] (0.06 mg/ml) was prepared. Then, ethanol was added to each extract and ascorbic acid as a reference material, which is known as an antioxidant, to prepare samples at a concentration of 0.1%, and serial dilution was performed. Then, the sample and the standard DPPH solution were added in the same ratio and stirred, followed by reaction at 37° C. for 30 minutes. Then, absorbance was measured at 517 nm. At this time, addition of ethanol instead of the sample was used as a control. Free radical scavenging ability was measured by calculating IC50, which is half maximal inhibitory concentration, and the results are shown in the following table. IC50 is a general method of expressing free radical scavenging ability as the concentration of ascorbic acid and extract required to remove 50% of free radicals of a non-addition control group.

The subject of experiment [3] is human-derived fibroblasts. The experiment in a line: Promotion of type I collagen synthesis (PICP EIA kit). The format is cell-based. The following applies: 10 ppb. The procedure:
Each sample was added to the culture medium of human-derived fibroblasts to confirm the effect of promoting synthesis of type I collagen at the cellular level. Measurement of synthesized collagen was quantified using a Procollagen Type I C-Peptide Enzyme Immuno Assay KIT (PICP ETA kit). To measure the amount of synthesized collagen, each sample was added to a fibroblast culture medium (DMEM culture medium). After cell culture for 48 hours, the culture medium was taken, and the degree of synthesis of type I collagen at each concentration was measured at 450 nm using a spectrophotometer using the PICP ETA kit.
For comparison of the effects, a collagen synthesis level was measured in the same manner for the culture medium of untreated fibroblasts (negative control) and a sample (positive control) to which TGFb was added to a final concentration of 10 ppb. A collagen production increase rate was calculated as the ratio of relative collagen production to the negative control group, and the results are shown in the table below.

In another experiment the test system is human dermal fibroblasts. The experiment in a line: Hyaluronic acid synthesis enhancement (Hyaluronan ELISA). Format: cell-based. The following applies: 10 ppb. The procedure: Human-derived fibroblasts (human dermal fibroblasts) cultured in a DMEM culture medium containing 10% fetal bovine serum at a cell density of 1×10^5 cells/mL, and 500 μl of the cell culture medium was added to each well of a 24-well plate. After incubation for 18 hours, the samples were diluted with a DMEM culture medium without fetal bovine serum, and each sample was added at the following concentrations. […] After incubation for 24 hours, the cell culture medium was recovered, and the concentration of hyaluronic acid was measured using a Hyaluronan ELISA kit (R&D Systems).

For the compound Hexanediol, the “Anti-bacteria MIC (%) Fungi” value in the experiment with Aspergillus niger (% (w/v), A. niger, 30° C., 48 hours) is recorded as “Fungi: A. niger 1%”; in the experiment with Aspergillus niger (Fungi), “Fungi: A. niger 1%”; in the experiment on Aspergillus niger (Fungi (A. niger)) it was “Fungi: A. niger 1%”; in the experiment on Aspergillus niger (Fungi (A.niger)), “Fungi: A.niger 1%”; in the experiment with Aspergillus niger (Fungi (control line: A. niger)), “Fungi: A. niger 1%”. The “Anti-bacteria MIC (%) Fungi: A. niger” value in the experiment on Aspergillus niger (control group, A. niger) is recorded as “Fungi: A. niger 1%”. In addition, the “Anti-bacteria MIC (%) Bacteria: P. aeruginosa” value with P. aeruginosa, in the experiment on P. aeruginosa (P. aeruginosa) and with P. aeruginosa (Bacteria: P. aeruginosa) was “Bacteria: P. aeruginosa 2%” in each case. In addition, the “Anti-bacteria MIC Bacteria: P. aeruginosa” value in the experiment with P. aeruginosa (Bacteria: P. aeruginosa) is reported as “Bacteria: P. aeruginosa 2%”.
`OC[C@H]1O[C@@H](Oc2ccc(O)cc2)[C@H](O)[C@@H](O)[C@@H]1O` [Aibutin]: the “Whitening Melanin content (%)” value in experiment [1] (Arbutin 200 ppm) is reported as 35%.
On to `CNC(=N)NCCC[C@H](N)C(=O)O` [L-NMMA, L-NG-monomethylarginine], for which the “Anti-inflammation Inhibition of NO production (%)” value in the experiment on RAW264.7 cells (control group, 5 ppm) was 28%; in the experiment with RAW264.7 cells (control group, L-NMMA 5 ppm), “L-NMMA (5 ppm) 28%”; with RAW264.7 cells (positive control, 5 ppm) it was 28%.
As for `O=C1O[C@H]([C@@H](O)CO)C(O)=C1O` [Vitamin C, ascorbic acid], the “Anti-oxidation IC50” value in experiment [2] and in experiment [2] (DPPH) was 7.5 ppm in each case.
In the case of “TGFb: positive control for collagen synthesis, 10 ppb”, the “Anti-wrinkle Collagen synthesis (% of control)” value in experiment [3] (control group) and in experiment [3] (positive control) was 25% each time.
Regarding `OC[C@H]1O[C@@H](Oc2ccc(O)cc2)[C@H](O)[C@@H](O)[C@@H]1O` [Arbutin, arbutin], the “Whitening Melanin content (%)” value in experiment [1] (200 ppm) is 35%.
For the compound “EGF: epidermal growth factor, known to promote hyaluronic acid production”, the “Moisturizing HA synthesis (%)” value with human dermal fibroblasts (control group) and in the experiment with human dermal fibroblasts (positive control) was 320% in each case.
